According to PMC6731595, “The anti-parasitic agent suramin and several of its analogues are inhibitors of the DNA binding protein Mcm10” (Open Biology, 2019):
Entries after “also recorded” stand apart in the source; their conditions may differ. Where a name gives a salt, the structure may show the parent alone.

Assays:
hMcm10-ID = target: T1, hMcm10-ID (Homo sapiens, UniProt Q7L590); assay: ABA injection SPR competition experiment with NF023 on hMcm10-ID; assay type: binding; settings: competitor at 1× KD with NF023 at 10× KD (50 μM)
T1 construct: hMcm10-ID (residues 237 to 436) were expressed in E. coli strain BL21(DE3); 6xHis (HRV 3C site) (N, cleaved yes); made in house; host or cells: E. coli BL21(DE3)
T1 sequence (Q7L590 237-436): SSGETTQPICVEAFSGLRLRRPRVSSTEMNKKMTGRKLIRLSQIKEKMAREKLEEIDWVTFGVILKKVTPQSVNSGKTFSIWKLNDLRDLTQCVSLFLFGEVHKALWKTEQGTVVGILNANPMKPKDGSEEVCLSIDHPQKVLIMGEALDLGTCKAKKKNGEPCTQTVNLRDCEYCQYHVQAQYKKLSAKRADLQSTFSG
Description: To explore this possibility, competition-based SPR experiments were conducted using the ABA injection method to determine if the slow binder iso-PPADS competes with the fast kinetic compound NF023 (figure 4). ABA injection allows solution A (NF023 at 10× its KD) to be injected over the surface with solution B (NF023 + competitor at 1× KD) in the same cycle. Competitive binding should result in little or no change in binding response between the A and B injections, whereas non-competitive binders are expected to produce an additive binding response.
For ABA competition SPR experiments, the CM5 chip surface was prepared as described in Materials and Methods. Solution A was prepared with 50 μM NF023 in running buffer while solution B was prepared with the competitor near its KD value (NF023 = 5 μM, suramin = 0.5 μM, and iso-PPADS = 30 μM) ± 50 μM NF023 in running buffer. Data were collected at a rate of 40 Hz and analyzed with the Biacore S200 Evaluation Software. For these experiments, hMcm10-ID was immobilized to the chip surface and NF023 at a concentration 10-fold higher than its KD. A running buffer control was performed to establish the baseline of the experiment. When buffer and NF023 were injected as solution B, there was a small decrease in RU due to slight buffer mismatch effects (Figure 5a). […] NF023, suramin, and iso-PPADS were chosen as competitors to be tested at concentrations equal to their respective KD values as determined by SPR.

[1] = target: T2, human Mcm10 internal domain (hMcm10-ID) (Homo sapiens, UniProt Q7L590); assay: Fluorescence polarization competition assay, displacement of 5′-6FAM 10-mer ssDNA probe from hMcm10-ID; assay type: binding; settings: mean ± s.e.m., n ≥ 3; hMcm10-ID 1 μM, probe 12.5 nM
T2 construct: hMcm10-ID (residues 237 to 436) were expressed in E. coli strain BL21(DE3); 6xHis (HRV 3C site) (N, cleaved yes); made in house; host or cells: E. coli BL21(DE3)
T2 sequence (Q7L590 237-436): T1 sequence (Q7L590 237-436)
Description: (§1) A fluorescence polarization (FP) HTS assay was established to detect inhibitors of the binding of the 5′-6FAM 10-mer oligo probe to Mcm10. Test compounds dissolved in DMSO were added to 384-well plates (Corning 4514) using an Echo 550 acoustic dispenser (final DMSO 0.1%) to achieve a final single point screening concentration of 10 µM. Then 10 µl of 2× Xenopus internal domain Mcm10 (xMcm10-ID, final concentration 2 µM) in binding buffer (20 mM Tris HCl, 100 mM NaCl, 5% glycerol, and 0.01% triton, pH 7.5) was added using the Combi nL Multidrop dispenser. Finally, 10 µl of 2× 5′-6FAM DNA (final 12.5 nM) in binding buffer was added using the Multidrop. DMSO (0.1%, high signal) and probe only (low signal) controls were included on every plate. Plates were mixed for 2 min, incubated for 60 min at RT in the dark, and read on a CLARIOstar multimode plate reader (excitation: 482-16, emission: 530-40, dichroic filter: LP504).
(§2) The LOPAC pilot screen identified the sulfhydryl reagent 4-chloromercuribenzoic acid as an inhibitor in the fluorescence polarization (FP) assay. As there was no known Mcm10 inhibitor, 4-chloromercuribenzoic acid (30 μM) was used as a positive control on initial screening plates. Following the discovery of suramin as a Mcm10 inhibitor, suramin (7 μM) was used as a positive control on subsequent screening plates. To confirm activity, screening hits were tested in dose response experiments (8 concentrations in duplicate) using xMcm10-ID. Similar dose response experiments were conducted with suramin and its analogs to confirm activity for hMcm10-ID (1 μM) and xMcm10-FL (2 μM) and to determine selectivity relative to RPA70AB (0.4 μM). Saturation experiments for each protein were conducted using increasing concentrations of protein with a fixed probe concentration (12.5 nM). FP was measured in mP units, and ∆mP values for each well were calculated as the difference between the measured mP and the average of the “probe only” controls. […] The parallel and perpendicular mP values were also used to calculate total fluorescence intensity (TFI) determined by the sum of parallel mP + (2 x perpendicular mP). TFI was used to detect fluorescence interference by compounds [1]. […] IC50 values were calculated using the four parameter logistic equation in Prism 6.0 (GraphPad). Ki values were obtained using an online Ki calculator according to the equations of Nikolovska-Coleska (http://sw16.im.med.umich.edu/soft-ware/calc_ki/). KD values were calculated using the one site or two site binding equations in Prism 6.0 (GraphPad).

[2] = target: T3, Xenopus internal domain Mcm10 (xMcm10-ID) (Xenopus laevis, UniProt Q5EAW4); assay: Fluorescence polarization HTS and dose-response assay, 5′-6FAM probe binding to xMcm10-ID; settings: dose-response with repurchased or purchased compound
T3 construct: xMcm10-ID (amino acid residues 229 to 427); 6xHis (HRV 3C site) (N, cleaved yes); made in house; host or cells: E. coli BL21(DE3)
T3 sequence (Q5EAW4 229-427): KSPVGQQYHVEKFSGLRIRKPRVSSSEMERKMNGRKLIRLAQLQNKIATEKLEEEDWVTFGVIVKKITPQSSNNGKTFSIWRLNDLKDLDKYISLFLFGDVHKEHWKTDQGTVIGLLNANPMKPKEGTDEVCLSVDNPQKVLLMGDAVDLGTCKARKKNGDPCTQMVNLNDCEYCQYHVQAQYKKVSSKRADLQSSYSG
Description: as §1, §2

Structure (SMILES) | competition with NF023 for binding to hMcm10-ID (ABA SPR) (hMcm10-ID) | Ki [1] | inhibition of 5′-6FAM probe binding to xMcm10-ID (result in words) [2]
O=C(Nc1cccc(C(=O)Nc2ccc(S(=O)(=O)O)c3cc(S(=O)(=O)O)cc(S(=O)(=O)O)c23)c1)Nc1cccc(C(=O)Nc2ccc(S(=O)(=O)O)c3cc(S(=O)(=O)O)cc(S(=O)(=O)O)c23)c1 [NF023] | consistent with a competitive interaction | 1800 ± 200 nM | –
O=C(Nc1cccc(C(=O)Nc2cc(C(=O)Nc3ccc(S(=O)(=O)O)c4cc(S(=O)(=O)O)cc(S(=O)(=O)O)c34)ccc2F)c1)Nc1cccc(C(=O)Nc2cc(C(=O)Nc3ccc(S(=O)(=O)O)c4cc(S(=O)(=O)O)cc(S(=O)(=O)O)c34)ccc2F)c1 [NF157] | – | 170 ± 20 nM | –
Cc1nc(/N=N/c2ccc(S(=O)(=O)O)cc2S(=O)(=O)O)c(COP(=O)(O)O)c(C=O)c1O [PPADS, pyridoxalphosphate-6-azophenyl-2’, 4’-disulfonic acid tetrasodium salt] | – | 17000 ± 1000 nM | weakly and incompletely inhibit; also recorded: little activity
Cc1nc(/N=N/c2cc(S(=O)(=O)O)ccc2S(=O)(=O)O)c(COP(=O)(O)O)c(C=O)c1O [iso-PPADS, pyridoxalphosphate-6-azophenyl-2’, 5’-disulfonic acid tetrasodium salt] | neither compound showed additive binding | 18000 ± 2000 nM | weakly and incompletely inhibit; also recorded: little activity
Cc1ccc(C(=O)Nc2ccc(S(=O)(=O)O)c3cc(S(=O)(=O)O)cc(S(=O)(=O)O)c23)cc1NC(=O)c1cccc(NC(=O)Nc2cccc(C(=O)Nc3cc(C(=O)Nc4ccc(S(=O)(=O)O)c5cc(S(=O)(=O)O)cc(S(=O)(=O)O)c45)ccc3C)c2)c1 [suramin, suramin sodium salt] | neither compound showed additive binding | 830 ± 70 nM | active
